One molecule from patent publication US10035810B2, “5,6-dihydro-4H-benzo[b]thieno-[2,3-d]azepine derivative” (PULMOCIDE LIMITED, priority 2014, dated 2018) can be followed below.

The test system of assay [1] is RSV A2 strain. Kind of assay: RSV A2-induced CPE in HEp2 cells. It counts as cell-based. Particulars: human respiratory syncytial virus. As for the experimental part: (§1) Assessment of RSV Induced CPE in HEp2 Cells
(§2) HEp2 cells were seeded (10^3/well/50 μL) in 384-well plates (Catalogue number 353962, BD Falcon, Oxford, UK) in […] containing 2 mM L-glutamine and 1 mM sodium pyruvate one day before infection. RSV A2 strain (#0709161v, NCPV, Public Health England, Wiltshire) or RSV B Washington strain (VR-1580, ATCC, Manassas, Va. 20108) virus solutions were prepared in serum free-DMEM with 2 mM L-glutamine and 1 mM sodium pyruvate, and then added (50 μL/well) to achieve a final virus concentration of 1 MOI. Simultaneously Compound (I) (0.5 μL DMSO solution) was added to 100 μL of HEp2 cell culture with virus solution to provide a final DMSO solution of 0.5%. Plates were incubated (37° C./5% CO2) for 5 days for studies using RSV A2 strain or 6 days for those using RSV B strain, and then resazurin sodium salt (5 μL of 0.03% solution; Sigma-Aldrich, Dorset, UK) was added to each well and the plate incubated for a further 6 hr (37° C./5% CO2). The fluorescence of each well [545 nm (excitation)/590 nm (emission)] was determined using a multi-scanner (Clariostar: BMG, Buckinghamshire, UK). The percentage inhibition for each well was calculated and the IC50, IC75 and IC90 values were calculated from the concentration-response curve generated for Compound (I).

For assay [2], the system named is RSV B Washington strain. Kind of assay: RSV B-induced CPE in HEp2 cells. As to conditions: human respiratory syncytial virus. It counts as cell-based. As for the experimental part: as §1, §2
For assay [3], the system named is RSV A2. Kind of assay: RSV infection in mice: virus titre in lung homogenate (plaque assay). It counts as in vivo, mice (male BALB/C). As to conditions: RSV A2 infected mice. As for the experimental part: Non-fasted mice (male BALB/C, 20-30 g) were infected intranasally with RSV A2 or virus diluent (DMEM, 2% FBS, 12.5% sucrose) under isoflurane (5% in O2) anaesthesia. The A2 strain of RSV (50 uL of 1.3×10^6 PFU/mL: final 0.65×10^5 PFU/mouse) was instilled into each nostril in a drop wise fashion alternating between the two until a volume of 50 μL was delivered. Following infection each animal was weighed on a daily basis to monitor changes. Compound (I) was dissolved in 100% DMSO (at 20 mg/mL and/or 2 mg/mL), then diluted at 1:10 in isotonic saline to achieve 10% DMSO in all treatments. Formulations were then sonicated to produce a suspension. The suspension was administered intratracheally (20 μL) with a FMJ-250 PennCentury device or intranasally (40 μL) with a pipette on 1 day and 1 hr before infection (day 0), and then on days 1, 2 and 3 post infection. Four days after RSV challenge, the animals were euthanised (by intraperitoneal injection of a pentobarbitone overdose), the trachea cannulated and BALF extracted for total and differential cell counts. […]
Anti-RSV F-protein antibody [2F7] […] Plaques were counted by eye and confirmed using light microscopy, allowing the calculation of plaque forming units per mL of lung homogenate supernatant.

The test system of assay [4] is RSV NS-1 gene transcripts. In words: RSV infection in cotton rats: RSV NS-1 gene transcript in lung (qRT-PCR). The class given is in vivo, cotton rats (Sigmodon hispidus). As to conditions: infected cotton rats. The method, then:
RSV Infection in Cotton Rats
Male Sigmodon hispidus cotton rats between 6 and 8 weeks of age were infected with hRSV/A/Long (ATCC, Manassas, Va.; 10^5 pfu) in a volume of 0.1 mL of sucrose stabilizing media. Compound (I) was dissolved in 100% DMSO (at 3.3, 10, 33 and 100 mg/mL), then diluted at 1:10 in isotonic saline to achieve 10% DMSO in all treatments. Formulations were then sonicated to produce suspensions. The resulting suspensions were administered intranasally (50 μL) by pipette 4 hr before infection (on day 0), and then on days 1, 2 and 3 post infection. Four days after RSV challenge, the animals were euthanised and the lungs were removed. The left lobe was used for viral titration via plaque assay and the lingular lobe for RSV/A/Long NS-1 qRT-PCR and cytokine qRT-PCR.
Total RNA was also extracted from homogenized lung tissue (RNeasy purification kit; Qiagen) and a sample (1 μg) was used to prepare cDNA using QuantiTect Reverse Transcription Kit (Qiagen). For real-time PCR reactions (RSV NS-1 and RANTES genes) the QuantiFast SYBR® Green PCR Kit (Qiagen) was used in a final volume of 25 μL, with final primer concentrations of 0.5 μM. […] Baseline cycles and cycle threshold (Ct) were calculated by the iQ5 software in the PCR Base Line Subtracted Curve Fit mode. […] The mRNA levels were expressed as the geometric mean±SEM for all animals in a group.

On to `Cc1cnc(N2CC3(CCOCC3)C2)c(C(=O)Nc2ccc(C(=O)N3CCc4cc(C(=O)Nc5c(C)cccc5F)sc4-c4ccccc43)cc2)c1` [Compound (I), N-(2-fluoro-6-methylphenyl)-6-(4-(5-methyl-2-(7-oxa-2-azaspiro[3.5]nonan-2-yl)nicotinamido)benzoyl)-5,6-dihydro-4H-benzo[b]thieno[2,3-d]azepine-2-carboxamide], for which the 50% inhibitory concentration (IC50) (usually the concentration that gives 50% inhibition) is 0.017 nM in assay [1] (HEp-2, 120 h, 1 MOI, 5 days) and 10.2 nM in assay [2] (HEp-2, 144 h, 1 MOI, 6 days). The inhibition (usually how much of the control response was suppressed) at 0.1 µg/mL in assay [1] (HEp-2, at 0.1 μg/mL) came to 100%. In assay [2] (HEp-2, at 1 μg/mL), this molecule came in with an inhibition at 1 µg/mL of 72%. Also, the “Virus titre in the lungs (in words)” value in assay [3] is listed as “completely inhibited virus titre”. The “Viral titre in lung homogenates (in words)” value in assay [3] (intranasally or intratracheally) was “potent dose-dependent inhibition of viral titre”. In assay [4], the “RSV NS-1 gene transcripts in lung (in words)” value was “dose-dependent inhibition of RSV NS-1 gene transcripts”.
